Values quoted from earlier work as cited in patent publication US6623775B2, “Treating or preventing illness growth of Clostridium difficile” (S.S. Steiner, Inc., priority 1997, dated 2003).

Conditions: degree of ionization taken into account

## CC(C)=CCC(=O)[C@@]1(O)C(O)=C(C(=O)CC(C)C)C(=O)[C@H]1CC=C(C)C (relative stereo) [trans-isohumulone]
  Antibacterial activity relative to colupulone: 11 times
  Antibacterial activity relative to humulone: about 20 times
  Antibacterial activity relative to trans-humulinic acid: nine
